These results are taken from patent US11542297B2, “Compositions and methods for treating CNS disorders” (Sage Therapeutics, Inc., priority 2014, dated 2023).

The subject of the experiment is PTZ-treated mice. Put plainly: Acute PTZ method (pentylenetetrazol-induced seizure assay). It is filed as in vivo. The following applies: Mus musculus, lowest dose significantly affecting latency to tonic seizures in PTZ-treated mice, PO, read-out: Anticonvulsive Effect Dose. On the procedure: The anticonvulsant effect of test compounds were assessed in a pentylenetetazol-induced seizure assay in mice similar to methods described in Giardina & Gasior (Curr Protoc Pharmacol. 2009). Male CD-1 mice were housed in groups of five under controlled conditions (temperature of 22±2° C. and 12:12 light-dark cycle, lights on at 8:00 am) and water and food were available ad libitum. The mice were housed for 1 week prior to behavioral testing, at which time they weighed 25-35 g. Pentylenetetrazol (PTZ, Sigma) was dissolved in sterile 0.9% saline at a concentration of 12 mg/mL concentration for subcutaneous administration. Test compounds were formulated and administered via oral gavage or intraperitoneal injection at a predetermined time-point (typically 30 or 60 minutes) prior to PTZ injection. […]
Mice were acclimated to the test room for at least 30 min before compound administration. […] Each mouse was continuously observed for 30 min and the following behaviors were recorded by observers blinded to the treatments: 1) latency to clonic convulsions that persist for 3 sec and followed by an absence of righting reflex 2) latency to tonic convulsions, characterized by the rigid extension of all four limbs that exceeded a 90 degree angle with the body 3) latency to death 4) number of clonic and tonic convulsions. […]

For `C[C@@]1(O)CC[C@@]2(C)[C@H](CC[C@@H]3[C@@H]2CC[C@]2(C)[C@@H](C(=O)Cn4ccc(C#N)n4)CC[C@@H]32)C1` [Compound 24], the minimal effective dose lay in the range of 1 to 5 mg/kg. `Cc1nnn(CC(=O)[C@H]2CC[C@H]3[C@@H]4CC[C@@H]5C[C@](C)(O)CC[C@]5(C)[C@H]4CC[C@]23C)n1` [Compound 32]: the minimal effective dose is no more than 1 mg/kg.
